Experimental data: patent US6756382B2, “Amide substituted imidazoquinolines” (3M Innovative Properties Company, priority 1999, dated 2004)
Where a name gives a salt, the structure may show the parent alone.

Experiments:
[1] = tested on: tumor necrosis factor (α); test: Cytokine induction in human cells: tumor necrosis factor (α) secreted by PBMCs, ELISA; assay type: cell-based; settings: PBMC, incubated 18 to 24 hours, TNF determined by ELISA, read-out: Lowest Effective Concentration (μM) Tumor Necrosis Factor
Source text: (§1) An in vitro human blood cell system was used to assess cytokine induction by compounds of the invention. Activity is based on the measurement of interferon and tumor necrosis factor (α) (IFN and TNF, respectively) secreted into culture media as described by Testerman et. al. In “Cytokine Induction by the Immunomodulators Imiquimod and S-27609”, Journal of Leukocyte Biology, 58, 365-372 (September, 1995).
(§2) Whole blood is collected by venipuncture into EDTA vacutainer tubes from healthy human donors. Peripheral blood mononuclear cells (PBMCs) are separated from whole blood by density gradient centrifugation using Histopaque®-1077 (Sigma Chemicals, St. Louis, Mo.). The PBMCs are suspended at 3-4×10^6 cells/mL in RPMI 1640 medium containing 10% fetal bovine serum, 2 mM L-glutamine and 1% penicillin/streptomycin solution (RPMI complete). The PBMC suspension is added to 48 well flat bottom sterile tissue culture plates (Costar, Cambridge, Mass. or Becton Dickinson Labware, Lincoln Park, N.J.) containing an equal volume of RPMI complete media containing test compound.
(§3) The compounds are solubilized in dimethyl sulfoxide (DMSO). The DMSO concentration should not exceed a final concentration of 1% for addition to the culture wells.
(§4) The solution of test compound is added at 60 μM to the first well containing RPMI complete and serial (three fold or ten fold) dilutions are made. The PBMC suspension is then added to the wells in an equal volume, bringing the test compound concentrations to the desired range. The final concentration of PBMC suspension is 1.5-2×10^6 cells/mL. The plates are covered with sterile plastic lids, mixed gently and then incubated for 18 to 24 hours at 37° C. in a 5% carbon dioxide atmosphere.
(§5) Following incubation the plates are centrifuged for 5-10 minutes at 1000 rpm (˜200×g) at 4° C. The cell culture supernatant is removed with a sterile polypropylene pipet and transferred to sterile polypropylene tubes. Samples are maintained at −30 to −70° C. until analysis. The samples are analyzed for interferon (α) by either ELISA or bioassay and for tumor necrosis factor (α) by ELISA.
Tumor necrosis factor (α) (TNF)concentration is determined using ELISA kits available from Genzyme, Cambridge, Mass.; R&D Systems, Minneapolis, Minn.; or Pharmingen, San Diego, Calif.
(§6) The table below lists the lowest concentration found to induce interferon and the lowest concentration found to induce tumor necrosis factor for each compound. […] Unless otherwise indicated, the interferon biosynthesis was determined by ELISA.

[2] = tested on: interferon (α); test: Cytokine induction in human cells: interferon secreted by PBMCs, ELISA; assay type: cell-based; settings: PBMC, incubated 18 to 24 hours, interferon determined by ELISA, read-out: Lowest Effective Concentration (μM) Interferon
Source text: as §1, §2, §3, §4, §5
Interferon (α) concentration is determined by ELISA using a Human Multi-Species kit from PBL Biomedical Laboratories, New Brunswick, N.J.
as §6

COCCc1nc2c(N)nc3ccccc3c2n1CCCCNC(=O)C1CCCN1S(=O)(=O)c1ccc(C(C)(C)C)cc1 (stereo in doubt) [Example 185, N-{4-[4-amino-2-(2-methoxyethyl)-1H-imidazo[4,5-c]quinolin-1-yl]butyl}-1-[(4-tert-butylphenyl)sulfonyl]-L-prolinamide]
minimal effective concentration [1]: 3.33 µM | minimal effective concentration [2]: 1.11 µM

Cc1nc2c(N)nc3ccccc3c2n1CCCCNC(=O)c1ccccc1 [Example 4, N^1-[4-(4-Amino-2-methyl-1H-imidazo[4,5-c]quinolin-1-yl)butyl]benzamide]
minimal effective concentration [1]: 0.37 µM | minimal effective concentration [2]: 0.04 µM

CCc1nc2c(N)nc3ccccc3c2n1CCCCNC(=O)c1ccccc1 [Example 5, N^1-[4-(4-Amino-2-ethyl-1H-imidazo[4,5-c]quinolin-1-yl)butyl]benzamide]
minimal effective concentration [1]: 0.37 µM | minimal effective concentration [2]: 0.04 µM

CCCCc1nc2c(N)nc3ccccc3c2n1CCCCNC(=O)c1ccccc1 [Example 6, N^1-[4-(4-Amino-2-butyl-1H-imidazo[4,5-c]quinolin-1-yl)butyl]benzamide]
minimal effective concentration [1]: 1.11 µM | minimal effective concentration [2]: 0.12 µM

Nc1nc2ccccc2c2c1ncn2CCCCCNC(=O)c1ccccc1 [Example 10, N^1-[5-(4-Amino-1H-imidazo[4,5-c]quinolin-1-yl)pentyl]benzamide Hydrochloride]
minimal effective concentration [1]: > 30 µM | minimal effective concentration [2]: 3.33 µM

Nc1nc2ccccc2c2c1ncn2CCCNC(=O)c1ccccc1 [Example 11, N^1-[3-(4-Amino-1H-imidazo[4,5-c]quinolin-1-yl)propyl]benzamide Hydrochloride]
minimal effective concentration [1]: > 30 µM | minimal effective concentration [2]: 1.11 µM

CCOCc1nc2c(N)nc3ccccc3c2n1CCNC(=O)CCCCC1SCC2NC(=O)NC21 (stereo not drawn) [Example 29, N^1-[2-(4-Amino-2-(ethoxymethyl)-1H-imidazo[4,5-c]quinolin-1-yl)ethyl]-5-(2-oxoperhydrothieno[3,4-d]imidazol-4-yl)pentanamide Ditrifluoroacetate]
minimal effective concentration [1]: > 30 µM | minimal effective concentration [2]: 0.12 µM

Nc1nc2ccccc2c2c1ncn2CCCCNC(=O)c1cccc2ccccc12 [Example 38, N^1-[4-(4-Amino-1H-imidazo[4,5-c]quinolin-1-yl)butyl]-1-naphthamide]
minimal effective concentration [1]: 3.33 µM | minimal effective concentration [2]: 0.12 µM

Nc1nc2ccccc2c2c1ncn2CCCCNC(=O)c1cnc2ccccc2c1 [Example 40, N^3-[4-(4-Amino-1H-imidazo[4,5-c]quinolin-1-yl)butyl]-3-quinolinecarboxamide]
minimal effective concentration [1]: 30 µM | minimal effective concentration [2]: 0.37 µM

Nc1nc2ccccc2c2c1ncn2CCCCNC(=O)c1ccco1 [Example 85]
minimal effective concentration [1]: 10 µM | minimal effective concentration [2]: 1.11 µM

Nc1nc2ccccc2c2c1ncn2CCCCNC(=O)c1cccs1 [Example 86]
minimal effective concentration [1]: 10 µM | minimal effective concentration [2]: 1.11 µM

Nc1nc2ccccc2c2c1ncn2CCCCNC(=O)c1ccc([N+](=O)[O-])cc1 [Example 87]
minimal effective concentration [1]: 30 µM | minimal effective concentration [2]: 3.33 µM

CC(=O)NCCCCn1cnc2c(N)nc3ccccc3c21 [Example 88]
minimal effective concentration [1]: > 30 µM | minimal effective concentration [2]: 10 µM

Nc1nc2ccccc2c2c1ncn2CCCCNC(=O)c1cccc(Br)c1 [Example 89]
minimal effective concentration [1]: 10 µM | minimal effective concentration [2]: 1.11 µM

Nc1nc2ccccc2c2c1ncn2CCCCNC(=O)C12CC3CC(CC(C3)C1)C2 [Example 90]
minimal effective concentration [1]: 10 µM | minimal effective concentration [2]: 3.33 µM

Nc1nc2ccccc2c2c1ncn2CCCCNC(=O)C1(c2ccc(Cl)cc2)CCCC1 [Example 91]
minimal effective concentration [1]: > 30 µM | minimal effective concentration [2]: 3.33 µM

C=CCCCCCCCCC(=O)NCCCCn1cnc2c(N)nc3ccccc3c21 [Example 92]
minimal effective concentration [1]: > 30 µM | minimal effective concentration [2]: 3.33 µM

COc1cc(C(=O)NCCCCn2cnc3c(N)nc4ccccc4c32)cc(OC)c1OC [Example 93]
minimal effective concentration [1]: 30 µM | minimal effective concentration [2]: 1.11 µM
